# Test results taken from US20250179088A9 (ZYMEWORKS BC INC., priority 2020, published 2025).
# How the values were obtained:
# [1] = system: PBMCs; assay: PBMC assay, IL-6 release (HTRF); assay type: cell-based; settings: PBMCs from healthy donors, overnight, IL-6 induction by HTRF, average of quadruplicate
# Description: Whole peripheral blood was obtained from healthy donors. PBMCs were isolated from peripheral blood by density gradient centrifugation. […] The plasma layer containing PBMCs was poured into a new tube and washed twice. Isolated PBMCs were either used fresh or thawed from previously frozen. 1×10^5 PBMCs were cultured with titrating concentrations of compounds of Formula I overnight followed by assaying for cytokines by homogeneous time resolved fluorescence (HTRF).
# [2] = target: T1, TLR7 (Homo sapiens, UniProt Q9NYK1); assay: Reporter gene assay, HEK-Blue TLR7 reporter cells (SEAP)
# T1 sequence (Q9NYK1 27-1049): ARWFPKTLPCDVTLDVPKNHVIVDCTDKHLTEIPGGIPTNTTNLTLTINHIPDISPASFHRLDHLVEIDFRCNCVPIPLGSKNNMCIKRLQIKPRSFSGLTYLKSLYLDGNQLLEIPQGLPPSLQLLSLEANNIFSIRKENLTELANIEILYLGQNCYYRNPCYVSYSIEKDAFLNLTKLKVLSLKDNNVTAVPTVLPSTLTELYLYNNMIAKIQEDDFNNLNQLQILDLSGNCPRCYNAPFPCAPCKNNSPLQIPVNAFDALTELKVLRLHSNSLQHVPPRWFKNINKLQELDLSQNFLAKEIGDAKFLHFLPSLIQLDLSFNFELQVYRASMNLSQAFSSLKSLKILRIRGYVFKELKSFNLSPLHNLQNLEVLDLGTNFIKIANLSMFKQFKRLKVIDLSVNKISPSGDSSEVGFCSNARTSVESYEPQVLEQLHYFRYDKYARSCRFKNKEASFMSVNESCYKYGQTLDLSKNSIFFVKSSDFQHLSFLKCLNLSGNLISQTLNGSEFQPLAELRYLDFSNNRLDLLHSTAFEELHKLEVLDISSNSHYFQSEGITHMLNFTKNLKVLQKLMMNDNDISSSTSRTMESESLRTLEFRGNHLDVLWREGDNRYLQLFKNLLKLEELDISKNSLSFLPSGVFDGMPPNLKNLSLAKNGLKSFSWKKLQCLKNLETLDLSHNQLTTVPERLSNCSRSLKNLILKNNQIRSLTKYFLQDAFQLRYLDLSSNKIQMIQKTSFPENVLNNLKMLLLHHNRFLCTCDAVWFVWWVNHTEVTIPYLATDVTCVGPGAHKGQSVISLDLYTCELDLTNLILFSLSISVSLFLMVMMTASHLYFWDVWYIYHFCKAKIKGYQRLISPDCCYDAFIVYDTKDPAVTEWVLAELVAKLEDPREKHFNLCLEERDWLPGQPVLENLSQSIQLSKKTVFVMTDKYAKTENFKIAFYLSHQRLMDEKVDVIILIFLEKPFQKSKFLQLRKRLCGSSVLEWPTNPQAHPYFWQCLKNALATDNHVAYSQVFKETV
# Description: (§1) 3×10^4 HEK-Blue™ TLR7 or 3×10^4 TLR8 reporter cells (InvivoGen, San Diego, CA) were treated with titrated (4-fold) amounts of test compound. […] Cells were incubated overnight at 37° C. and 5% CO2, then absorbance (620 and 655 nm) was read on a Synergy™ H1 microplate reader.
# [3] = target: T2, TLR8 (Homo sapiens, UniProt Q9NR97); assay: Reporter gene assay, HEK-Blue TLR8 reporter cells (SEAP)
# T2 sequence (Q9NR97 27-1041): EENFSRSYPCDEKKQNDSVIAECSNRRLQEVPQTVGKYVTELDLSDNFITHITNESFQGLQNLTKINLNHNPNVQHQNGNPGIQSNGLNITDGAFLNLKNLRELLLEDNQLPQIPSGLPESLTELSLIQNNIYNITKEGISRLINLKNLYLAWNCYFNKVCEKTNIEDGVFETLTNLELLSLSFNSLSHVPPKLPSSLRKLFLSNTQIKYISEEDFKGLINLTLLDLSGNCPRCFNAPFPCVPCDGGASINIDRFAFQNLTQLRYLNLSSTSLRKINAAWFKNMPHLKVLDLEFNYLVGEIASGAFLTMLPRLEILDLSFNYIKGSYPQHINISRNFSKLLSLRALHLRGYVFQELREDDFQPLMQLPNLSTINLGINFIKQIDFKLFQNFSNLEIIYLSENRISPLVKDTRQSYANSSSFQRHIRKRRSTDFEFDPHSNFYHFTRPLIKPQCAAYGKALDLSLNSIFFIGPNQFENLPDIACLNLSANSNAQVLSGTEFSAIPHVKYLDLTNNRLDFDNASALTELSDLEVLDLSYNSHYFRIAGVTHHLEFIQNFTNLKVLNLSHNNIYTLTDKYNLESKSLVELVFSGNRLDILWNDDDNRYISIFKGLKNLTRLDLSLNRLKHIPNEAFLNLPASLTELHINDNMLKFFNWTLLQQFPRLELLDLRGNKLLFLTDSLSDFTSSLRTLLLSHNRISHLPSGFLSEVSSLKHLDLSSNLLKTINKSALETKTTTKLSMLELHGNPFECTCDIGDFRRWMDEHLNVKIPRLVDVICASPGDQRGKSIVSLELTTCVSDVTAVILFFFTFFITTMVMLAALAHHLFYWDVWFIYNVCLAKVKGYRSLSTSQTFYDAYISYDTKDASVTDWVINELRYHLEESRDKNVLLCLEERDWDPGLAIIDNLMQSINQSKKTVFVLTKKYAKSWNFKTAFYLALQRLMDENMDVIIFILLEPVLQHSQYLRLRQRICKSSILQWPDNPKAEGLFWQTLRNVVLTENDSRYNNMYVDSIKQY
# Description: as §1
Compound,EC50 [2],EC50 [3],EC50 [1]
"CCCCc1nc2c(N)nc3ccsc3c2n1Cc1ccc(CN2CCCCC2)cc1 [Compound 151, 2-butyl-1-(4-(piperidin-1-ylmethyl)benzyl)-1H-imidazo[4,5-d]thieno[3,2-b]pyridin-4-amine]",3.8 nM,> 1000 nM,20 nM
"CCCCc1nc2c(N)nc3ccsc3c2n1Cc1ccc(CN(CCN(CCCC)CCCC)CCN(CCCC)CCCC)cc1 [Compound 152, N^1-(4-((4-amino-2-butyl-1H-imidazo[4,5-d]thieno[3,2-b]pyridin-1-yl)methyl)benzyl)-N^2,N^2-dibutyl-N^1-(2-(dibutylamino)ethyl)ethane-1,2-diamine]",67 nM,> 1000 nM,59 nM
"CCCCc1nc2c(N)nc3ccsc3c2n1Cc1ccc(CN2CCN(C(=O)OC(C)(C)C)CC2)cc1 [Compound 153, tert-butyl 4-(4-((4-amino-2-butyl-1H-imidazo[4,5-d]thieno[3,2-b]pyridin-1-yl)methyl)benzyl)piperazine-1-carboxylate]",85 nM,> 1000 nM,420 nM
"CCCCc1nc2c(N)nc3ccsc3c2n1Cc1ccc(CNc2nnc[nH]2)cc1 [Compound 272, 1-(4-(((4H-1,2,4-triazol-3-yl)amino)methyl)benzyl)-2-butyl-1H-imidazo[4,5-d]thieno [3,2-b]pyridin-4-amine]",33 nM,> 1000 nM,–
"CCCCc1nc2c(N)nc3ccsc3c2n1Cc1ccc(CN2CCN(CCc3ccccn3)CC2)cc1 [Compound 275, 2-butyl-1-(4-((4-(2-(pyridin-2-yl)ethyl)piperazin-1-yl)methyl)benzyl)-1H-imidazo[4,5-d]thieno[3,2-b]pyridin-4-amine]",> 1000 nM,> 1000 nM,–
"CCCCc1nc2c(N)nc3ccsc3c2n1Cc1ccc(CN(CCC)CCC)cc1 [Compound 277, 2-butyl-1-(4-((dipropylamino)methyl)benzyl)-1H-imidazo[4,5-d]thieno[3,2-b]pyridin-4-amine]",< 1 nM,404 nM,–
"CCCCc1nc2c(N)nc3ccsc3c2n1Cc1ccc(C[n+]2ccccc2)cc1 [Compound 279, 1-(4-((4-amino-2-butyl-1H-imidazo[4,5-d]thieno[3,2-b]pyridin-1-yl)methyl)benzyl) pyridin-1-ium]",< 1 nM,> 1000 nM,–
"CCOCc1nc2c(N)nc3ccsc3c2n1Cc1ccc(CN2CCNCC2)cc1 [Compound 289, 2-(ethoxymethyl)-1-(4-(piperazin-1-ylmethyl)benzyl)-1H-imidazo[4,5-d]thieno[3,2-b]pyridin-4-amine]",9 nM,> 1000 nM,–
"CCOCc1nc2c(N)nc3ccsc3c2n1Cc1ccc(CN(CC)CC)cc1 [Compound 290, 1-(4-((diethylamino)methyl)benzyl)-2-(ethoxymethyl)-1H-imidazo[4,5-d]thieno[3,2-b]pyridin-4-amine]",4 nM,1030 nM,–
"CCOCc1nc2c(N)nc3ccsc3c2n1Cc1ccc(CNC2CC(F)(F)C2)cc1 [Compound 291, 1-(4-(((3,3-difluorocyclobutyl)amino)methyl)benzyl)-2-(ethoxymethyl)-1H-imidazo[4,5-d]thieno[3,2-b]pyridin-4-amine]",14 nM,1130 nM,–
"CCOCc1nc2c(N)nc3ccsc3c2n1Cc1ccc(CN[C@H](CO)[C@@H](C)CC)cc1 [Compound 292, (2S,3S)-2-((4-((4-amino-2-(ethoxymethyl)-1H-imidazo[4,5-d]thieno[3,2-b]pyridin-1-yl)methyl)benzyl)amino)-3-methylpentan-1-ol]",3 nM,674 nM,–
"CCOCc1nc2c(N)nc3ccsc3c2n1Cc1ccc(CNCc2cc[nH]c2)cc1 [Compound 293, 1-(4-((((1H-pyrrol-3-yl)methyl)amino)methyl)benzyl)-2-(ethoxymethyl)-1H-imidazo [4,5-d]thieno[3,2-b]pyridin-4-amine]",7 nM,> 1000 nM,–

# Second part, led by results:
EC50 [2],EC50 [3],Compound,EC50 [1]
> 1000 nM,> 1000 nM,"CCCCc1nc2c(N)nc3ccsc3c2n1Cc1ccc(C[N+]23CCN(CC2)CC3)cc1 [Compound 295, 1-(4-((4-amino-2-butyl-1H-imidazo[4,5-d]thieno[3,2-b]pyridin-1-yl)methyl)benzyl)-1,4-diazabicyclo[2.2.2]octan-1-ium]",–
< 1 nM,134 nM,"CCCCc1nc2c(N)nc3ccsc3c2n1Cc1ccc(CN[C@H](CO)[C@@H](C)CC)cc1 [Compound 296, (2S,3S)-2-((4-((4-amino-2-butyl-1H-imidazo[4,5-d]thieno[3,2-b]pyridin-1-yl)methyl)benzyl)amino)-3-methylpentan-1-ol]",–
676 nM,> 1000 nM,"CCCCc1nc2c(N)nc3ccsc3c2n1Cc1ccc(CN[C@H](C(=O)O)[C@@H](C)CC)cc1 [Compound 297, (4-((4-amino-2-butyl-1H-imidazo[4,5-d]thieno[3,2-b]pyridin-1-yl)methyl)benzyl)-L-isoleucine]",–
159 nM,> 1000 nM,"CCCCc1nc2c(N)nc3ccsc3c2n1Cc1ccc(CN[C@H](C(=O)O)[C@@H](C)O)cc1 [Compound 298, (4-((4-amino-2-butyl-1H-imidazo[4,5-d]thieno[3,2-b]pyridin-1-yl)methyl)benzyl)-L-threonine]",–
446 nM,> 1000 nM,"CCCCc1nc2c(N)nc3ccsc3c2n1Cc1ccc(CN(CC(=O)O)CC(=O)O)cc1 [Compound 299, 2,2′-((4-((4-amino-2-butyl-1H-imidazo[4,5-d]thieno[3,2-b]pyridin-1-yl)methyl)benzyl)azanediyl)diacetic acid]",–
> 1000 nM,> 1000 nM,"CCCCc1nc2c(N)nc3ccsc3c2n1Cc1ccc(CN2CCC[C@H]2C(=O)O)cc1 [Compound 300, (4-((4-amino-2-butyl-1H-imidazo[4,5-d]thieno[3,2-b]pyridin-1-yl)methyl)benzyl)-L-proline]",–
348 nM,> 1000 nM,"CCCCc1nc2c(N)nc3ccsc3c2n1Cc1ccc(CNCCC(=O)N[C@@H](Cc2cnc[nH]2)C(=O)O)cc1 [Compound 301, (3-((4-((4-amino-2-butyl-1H-imidazo[4,5-d]thieno[3,2-b]pyridin-1-yl)methyl)benzyl)amino)propanoyl)-L-histidine]",–
108 nM,> 1000 nM,"CCCCc1nc2c(N)nc3ccsc3c2n1Cc1ccc(CNCCCC[C@H](N)C(=O)O)cc1 [Compound 305, N^6-(4-((4-amino-2-butyl-1H-imidazo[4,5-d]thieno[3,2-b]pyridin-1-yl)methyl)benzyl)-L-lysine]",–
